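Cultured in 96-well plates, cells were exposed to test compound for 48 hours across five concentrations. Here, GI50 denotes the concentration required for 50% inhibition of growth. Definition used: TGI = concentration required for complete inhibition of growth.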
Tested on: UACC-62 melanoma
Assay: inhibition of tumour cell growth, NCI panel, 48 h

`Cc1ccc(C2=Nc3ccccc3SC(c3cccc([N+](=O)[O-])c3)C2)cc1` (stereo not drawn) and `COc1ccc(C(=O)N2c3ccccc3Sc3ccccc32)c(OC)c1` cannot be ordered by TGI: greater than 100 µM for the first, greater than 100 µM for the second.

`CN1CCC(n2cnc(-c3ccc(F)cc3)c2-c2ccnc(N)n2)CC1` and `CC(C)(C)CN1CCn2c(nc3c(N)nccc32)S1` cannot be ordered by TGI: greater than 25 µM for the first, 88.5 µM for the second.

Compared with `COc1cc(/C=C/[N+](=O)[O-])cc(Br)c1OC`, `COc1ccc2c(c1)OC1=C(C(=O)OC1)C2c1cc(OC)c2c(c1)OCO2` (stereo not drawn) is higher in TGI: 12.2 µM for the first, greater than 100 µM for the second.

Going from `CN(CC(N)=O)C(=O)N(CCCl)N=O` to `CCn1c2ccccc2c2cc(/C=C(/C#N)C(N)=O)ccc21`, the TGI falls from greater than 100 µM to 7.65 µM.

`Cc1ccc(NC(=O)c2ccccc2C(=O)O)cc1C` and `Cc1c(C2=C(c3cn(C)c4ccccc34)C(=O)NC2=O)c2ccccc2n1C` cannot be ordered by TGI: greater than 100 µM for the first, greater than 25 µM for the second.

`CC(C)=CCC/C(C)=C/CC/C(C)=C/CC/C=C(\C)CC/C=C(\C)CCC(=O)Nc1ccn(C2OC(CO)C(O)C2(F)F)c(=O)n1` (stereo not drawn) and `CCN1C(=O)N(CC)C2C1NN=c1s/c(=C3\C(=O)N(CCc4ccccc4)c4ccccc43)c(=O)n12` (stereo not drawn) are within 1.5-fold of each other in TGI: 15.2 µM for the first, 11.5 µM for the second.

First: COc1ccc(-c2cc(=O)c3c(OC)c(OC)c(OC)c(OC)c3o2)cc1
Second: CN1CCN(CC(O)COc2c(Br)c(Br)c(Br)c3c2OC(C)(C)C3)CC1 (stereo not drawn)
The TGI of the first is 26-fold higher: 84 µM for the first, 3.29 µM for the second.

In the case of `CC1(C)CCC[C@]2(C)[C@@H](C=O)C(C=O)=CC[C@@H]12`, the TGI is reported as 34.7 µM.

`CN1CCC(n2cnc(-c3ccc(F)cc3)c2-c2ccnc(N)n2)CC1` and `CC(C)(C)CN1CCn2c(nc3c(N)nccc32)S1` are within 1.5-fold of each other in GI50: 14.1 µM for the first, 13.7 µM for the second.

First: COc1cc(/C=C/[N+](=O)[O-])cc(Br)c1OC
Second: COc1ccc2c(c1)OC1=C(C(=O)OC1)C2c1cc(OC)c2c(c1)OCO2 (stereo not drawn)
The GI50 of the first is 73-fold higher: 3.49 µM for the first, 0.0478 µM for the second.

Compared with `CC(C)=CCC/C(C)=C/CC/C(C)=C/CC/C=C(\C)CC/C=C(\C)CCC(=O)Nc1ccn(C2OC(CO)C(O)C2(F)F)c(=O)n1` (stereo not drawn), `CCN1C(=O)N(CC)C2C1NN=c1s/c(=C3\C(=O)N(CCc4ccccc4)c4ccccc43)c(=O)n12` (stereo not drawn) is 2.2-fold higher in GI50: 0.287 µM for the first, 0.637 µM for the second.

`Cc1c(C2=C(c3cn(C)c4ccccc34)C(=O)NC2=O)c2ccccc2n1C` and `CCn1c2ccccc2c2cc(/C=C(/C#N)C(N)=O)ccc21` are within 1.5-fold of each other in GI50: 1.95 µM for the first, 1.91 µM for the second.

Compared with `COc1ccc(C(=O)N2c3ccccc3Sc3ccccc32)c(OC)c1`, `CN1CCN(CC(O)COc2c(Br)c(Br)c(Br)c3c2OC(C)(C)C3)CC1` (stereo not drawn) is 5.7-fold higher in GI50: 0.321 µM for the first, 1.83 µM for the second.

Tested on: SF-539 CNS
Assay: inhibition of tumour cell growth, NCI panel, 48 h

Going from `CC(=O)c1c(C(F)(F)F)n([O-])c2ccc(C)cc2[n+]1=O` to `COc1ccc(/C=N/NC(=O)Cn2c(-c3ccc(S(C)(=O)=O)cc3)nc3cc(Cl)ccc32)cc1`, the GI50 falls from 1.78 µM to 0.855 µM (2.1-fold).

Going from `COc1cc2c(c(OC)c1OC)-c1ccc(SC)c(=O)cc1[C@@H](NC1OC(CO)C(O)C(O)C1O)CC2` (stereo partly drawn) to `C[C@@H]1O[C@@H](O[C@H]2CC[C@@]3(C)[C@H](CCC4[C@@H]3C(O)C[C@]3(C)[C@@H](c5ccc(=O)oc5)CC[C@]43O)C2)[C@H](O)[C@H](O)[C@H]1O` (stereo partly drawn), the GI50 falls from 0.0243 µM to 0.00421 µM (5.8-fold).

Compared with `CCN(Cc1ccc(Cl)s1)c1ccc(CO)c(Cl)c1`, `CCN1C(=O)N(CC)C2C1NN=c1s/c(=C\c3ccccc3Br)c(=O)n12` (stereo not drawn) is 540-fold lower in GI50: 13 µM for the first, 0.0242 µM for the second.

First: COc1ccc(OC)c(C2SCC(=O)N2NC(=O)C(O)c2ccccc2)c1 (stereo not drawn)
Second: CC(C)(C)c1ccc(C(=O)Nc2sc3c(c2C(N)=O)CCC(=O)C3)cc1
The GI50 of the first is higher: greater than 100 µM for the first, 0.438 µM for the second.

Going from `O=C(Nc1cccc(Nc2ncc(Br)c(NCCc3cnc[nH]3)n2)c1)N1CCCC1` to `CN1CCC(n2cnc(-c3ccc(F)cc3)c2-c2ccnc(N)n2)CC1`, the GI50 rises from 0.897 µM to 14.2 µM (16-fold).

First: COc1cc(/C=C/[N+](=O)[O-])cc(Br)c1OC
Second: CC(C)=CCC/C(C)=C/CC/C(C)=C/CC/C=C(\C)CC/C=C(\C)CCC(=O)Nc1ccn(C2OC(CO)C(O)C2(F)F)c(=O)n1 (stereo not drawn)
The GI50 of the first is 93-fold higher: 2.49 µM for the first, 0.0268 µM for the second.

Compared with `CC(=O)c1c(C(F)(F)F)n([O-])c2ccc(C)cc2[n+]1=O`, `Cc1ccc(NC(=O)c2ccccc2C(=O)O)cc1C` is higher in TGI: 5.1 µM for the first, greater than 100 µM for the second.

Going from `COc1ccc(/C=N/NC(=O)Cn2c(-c3ccc(S(C)(=O)=O)cc3)nc3cc(Cl)ccc32)cc1` to `Cc1ccc(C2=Nc3ccccc3SC(c3cccc([N+](=O)[O-])c3)C2)cc1` (stereo not drawn), the TGI rises from 3.35 µM to 19 µM (5.7-fold).

Compared with `COc1cc2c(c(OC)c1OC)-c1ccc(SC)c(=O)cc1[C@@H](NC1OC(CO)C(O)C(O)C1O)CC2` (stereo partly drawn), `COc1ccc(-c2cc(=O)c3c(OC)c(OC)c(OC)c(OC)c3o2)cc1` is higher in TGI: 0.0703 µM for the first, greater than 100 µM for the second.

Going from `CCOc1nc(N)nc(C)c1N=Nc1ccc(Cl)cc1` to `Nc1ccccc1SCc1csc(-c2ccc(Cl)cc2)n1`, the TGI falls from greater than 100 µM to 53.2 µM.

Going from `CCN(Cc1ccc(Cl)s1)c1ccc(CO)c(Cl)c1` to `O=C(O)COc1c(Cl)cc(Cl)c2cccnc12`, the TGI rises from 28.5 µM to greater than 100 µM.

Compared with `CSC(=S)N/N=C(\C)c1cccc(C)n1`, `CN1CCC(n2cnc(-c3ccc(F)cc3)c2-c2ccnc(N)n2)CC1` is higher in TGI: 7.34 µM for the first, greater than 25 µM for the second.

Compared with `N#Cc1c(N)[nH]c2ccc(Sc3ccccc3)cc12`, `COc1ccc(OC)c(C2SCC(=O)N2NC(=O)C(O)c2ccccc2)c1` (stereo not drawn) is higher in TGI: 0.694 µM for the first, greater than 100 µM for the second.

First: CCN1C(=O)N(CC)C2C1NN=c1s/c(=C\c3ccccc3Br)c(=O)n12 (stereo not drawn)
Second: CC(C)(C)c1ccc(C(=O)Nc2sc3c(c2C(N)=O)CCC(=O)C3)cc1
The TGI of the first is 4.2-fold lower: 0.382 µM for the first, 1.61 µM for the second.

`O=C(Nc1cccc(Nc2ncc(Br)c(NCCc3cnc[nH]3)n2)c1)N1CCCC1` and `COc1cc(/C=C/[N+](=O)[O-])cc(Br)c1OC` are within 1.5-fold of each other in TGI: 9.17 µM for the first, 6.62 µM for the second.

Compared with `C[C@@H]1O[C@@H](O[C@H]2CC[C@@]3(C)[C@H](CCC4[C@@H]3C(O)C[C@]3(C)[C@@H](c5ccc(=O)oc5)CC[C@]43O)C2)[C@H](O)[C@H](O)[C@H]1O` (stereo partly drawn), `CC(C)=CCC/C(C)=C/CC/C(C)=C/CC/C=C(\C)CC/C=C(\C)CCC(=O)Nc1ccn(C2OC(CO)C(O)C2(F)F)c(=O)n1` (stereo not drawn) is 53-fold higher in TGI: 0.00897 µM for the first, 0.475 µM for the second.

Work on `CN(CC(N)=O)C(=O)N(CCCl)N=O` yielded a TGI greater than 100 µM.

From PubChem BioAssay (NCI)
